From patent publication EP0191624A2, “Gold-purine antitumor agents” (ENGELHARD CORPORATION, priority 1985, dated 1986)
“And” between values parts separate entries of the source, which are not always exact repeats. Identical values can stand only once.

Legend:
S180 ascites = assay: Screening for anti-tumor activity against S180 ascites (increase in life span); assay type: in vivo, female CFW Swiss mice; settings: for %ILS: injected day 1; for 30-Day Survivors: survivors/mice in set
Description: The compounds were evaluated for anti-tumor activity against S180 ascites in female CFW Swiss mice by the following procedure: • CFW mice, averaging 20g, are immediately inspected and placed in newly prepared cages. On day zero the mice are inoculated with 0.2 ml. of a freshly prepared saline suspension (0.15 M NaCl) containing 1 x 10^7 tumor cells/ ml, or a total of 2 x 10^6 cells. This inoculum is freshly prepared using "transfer" mice which have been injected with tumor cells the previous week. This inoculum is the end-product of a series of steps which involves (1) the removal of the cells from the peritoneal cavity of the sacrificed transfer mouse, (2) alternate centrifugation- washing (2-3 times with cold saline) to remove occasional blood and other undesirable components, and finally (3) dilution (1:3) of the packed cell volume with saline (the final centrifugation being carried out at 1,000 rpm for 2 min.). A cell count is made on a 2,000-fold dilution of this 1:3 suspension by means of a Coulter Counter. A final dilution to 1 x 10^7 cells/ml. is made based on the averaged count. On day 1, solutions of the test compounds are prepared and the mice injected, with each mouse of a set of six being injected with the same test compound at the same dose level.
Also, on this day, two types of controls (6 mice/se are employed: (1) Normal (1 set): 0.5 ml. of the solvent medium used for the test compound, and (2) Positive control (1 set): a known anti-tumor agent (cis-(Pt(NH3)2Cl2] in saline at 8 mg./kg.), used to test the response of the biological system.
ILS values above 50% represent significant activity; those above 75% represent excellent activity.

Solubility in water = assay type: physicochemical
[1] = Stability in aqueous solution with respect to reduction; assay type: physicochemical
[2] = C. Dragulescu et al, Int. Coord. Chem. Conf. XVI 1,99 (1974); cited from earlier work
[3] = positive control in saline at 8 mg./kg., run alongside each test compound

Compound: N.N.[Cl][Pt][Cl] [Control, cis-diamminedichloroplatinum(II), reference compound]
- Control 30-Day Survivors (S180 ascites; [3]): 3/6 and 4/5
- Control %ILS (S180 ascites; [3]): 80% and 96%

Compound: Cl.Cn1c(=O)c2c(ncn2CCCl)n(C)c1=O.Cn1c(=O)c2c(ncn2CCCl)n(C)c1=O.[Cl][Au]([Cl])[Cl] [Example 1, [AuCl3(7-chloroethyl-theophylline)](7-chloro-ethyltheophylline)·HCl]
- %ILS (S180 ascites; dose 5 mg/kg): 8%
- 30-Day Survivors (S180 ascites; dose 5 mg/kg): 0/6
- %ILS (S180 ascites; dose 10 mg/kg): -3%
- 30-Day Survivors (S180 ascites; dose 10 mg/kg): 0/6
- %ILS (S180 ascites; dose 20 mg/kg): 14%
- 30-Day Survivors (S180 ascites; dose 20 mg/kg): 0/6
- %ILS (S180 ascites; dose 40 mg/kg): 9%
- 30-Day Survivors (S180 ascites; dose 40 mg/kg): 0/6
- %ILS (S180 ascites; dose 80 mg/kg): 79%
- 30-Day Survivors (S180 ascites; dose 80 mg/kg): 3/6
- %ILS (S180 ascites; dose 160 mg/kg): 3%
- 30-Day Survivors (S180 ascites; dose 160 mg/kg): 1/6
- soluble in water (Solubility in water): at least 64 mg/5 ml
- stable, at least with respect to reduction, in solution [1]: ca. 24 hours

Compound: Cl.Cn1c(=O)c2c(ncn2CC(O)CO)n(C)c1=O.Cn1c(=O)c2c(ncn2CC(O)CO)n(C)c1=O.[Cl][Au]([Cl])[Cl] (stereo not shown) [Example 2, [AuCl3(7-(2,3-dihydroxy-propyl)theophylline)] (7-(2,3-dihydroxypropyl)theophylline)·HCl]
- %ILS (S180 ascites; dose 10 mg/kg): -13%
- 30-Day Survivors (S180 ascites; dose 10 mg/kg): 0/6
- %ILS (S180 ascites; dose 20 mg/kg): -11%
- 30-Day Survivors (S180 ascites; dose 20 mg/kg): 0/6
- %ILS (S180 ascites; dose 40 mg/kg): -3%
- 30-Day Survivors (S180 ascites; dose 40 mg/kg): 0/6
- %ILS (S180 ascites; dose 80 mg/kg): 69%
- 30-Day Survivors (S180 ascites; dose 80 mg/kg): 2/6
- %ILS (S180 ascites; dose 160 mg/kg): 34%
- 30-Day Survivors (S180 ascites; dose 160 mg/kg): 1/6
- %ILS (S180 ascites; dose 320 mg/kg): -62%
- 30-Day Survivors (S180 ascites; dose 320 mg/kg): 0/6
- soluble in water (Solubility in water): at least 64 mg/5 ml
- stable, at least with respect to reduction, in solution [1]: ca. 24 hours

Compound: [Au(III)(5-diazauracil)2Cl2]Cl
- antitumor activity in mice [2]: possess antitumor activity
